Results: PMC13586173, “Synthetic cannabinoid receptor agonists inhibit the cardiac voltage-gated potassium channel hERG” (Acta Pharmacologica Sinica, 2026)

What follows are molecules tested against hERG (KV11.1) (Homo sapiens, UniProt Q12809) (assay: Automated planar patch-clamp (APC, QPatch II 48), voltage-ladder protocol, CHO cells stably expressing human hERG). Conditions: best fit; 1 = no reduction of Gmax, 0 = complete reduction; APC, 22 °C.
From the text: To assess the effect of a large set of SCRAs on hERG (see SI Table I and SI Fig. S1 for a list of the 36 included SCRAs and corresponding structures), we used the automated planar patch-clamp (APC) technique on mammalian Chinese hamster ovary (CHO) cells stably expressing human hERG. […] We employed a voltage-ladder protocol to obtain information on SCRA effects on the channel’s voltage dependence of activation (V50) and maximal conductance (Gmax) (both determined from Boltzmann fits of the instantaneous tail currents; see Methods for details).
Stably expressing cell lines “CHO-hERG DUO” (here referred to as hERG; gene: KCNH2) and “CHO-KVLQT1/mink” (here referred to as KV7.1/KCNE1; gene: KCNQ1/KCNE1), (B’SYS GmBH, Witterswil, Switzerland) were used to study whole-cell K^+ currents on a QPatch II 48 APC system (Sophion Bioscience A/S, Ballerup, Denmark). Cell culture and passaging were performed in accordance with standard operating procedures. Cells were harvested in serum-free medium with Detachin^TM (Genlantis, CA, USA) immediately prior to experiments. For MPC on transient cell lines, CHO-K1 CCL-61 cells (ATCC, Manassas, VA, USA) were cultured in Ham’s F-12 medium supplemented with 10% fetal bovine serum (FBS) and 100 U/mL penicillin–100 µg/mL streptomycin (Gibco, Thermo Fisher Scientific, Waltham, MA, USA). Transfection was carried out using JetOPTIMUS® reagent (Polyplus, Strasbourg, France) according to the manufacturer’s protocol. Briefly, 80,000 cells were seeded per well in a 12-well plate and transfected with 300 ng of pcDNA3-GFP plasmid, 700 ng of pcDNA3-hERG plasmid with either the wild-type or mutant channels (S624A, S649A, or Y652A), and […] of JetOPTIMUS. After 8 h, cells were detached and reseeded at a density of 30,000 cells per well onto several poly-D-lysine-coated glass coverslips placed in a 12-well plate. For the CB1 receptor activity assay, the AequoScreen® recombinant Chinese hamster ovary (CHO) K1 cell line, stably expressing the human CB1 receptor (ES-110-A), was used (Revvity, Sollentuna, Sweden).
Automated patch-clamp recordings were performed at 22 °C. Freshly harvested cell suspensions (2–3 million cells/mL) were prepared for experiments by the QPatch II 48 automated cell preparation unit. Cells were centrifuged for 150 s at 150 × g and washed twice with the extracellular recording solution. Cells were handled by the integrated pipetting robot and added to the 48 experiment sites on the planar patch-clamp consumable QPlate. Each experiment site contained an individual pair of recording electrodes and a silicon/glass biochip embedded in the flow channels. Single-cell patch recordings (n = 1 is defined as one single-cell patch) and population patch recordings (up to 10 cells per well, n = 1 is defined as one population patch) were performed for hERG and for KV7.1/KCNE1, respectively. Cells were applied, positioned and sealed to the patch holes by a mild suction protocol; whole-cell access was then achieved by a stronger suction pulse.
The intracellular solution contained (in mM): 100 KCl, 4.3 CaCl2, 1.4 MgCl2, 25/10 KOH/EGTA, 24 KF, 10 HEPES, and 4 Mg-ATP (hERG) or 4 Na-ATP (KV7.1/KCNE1). […] The compounds were pre-diluted in DMSO, and the final concentration of DMSO (0.3%) was equal in all recording solutions to control for vehicle effects. The compounds made no contact with plastics following dilution in extracellular solution.
An overview of experimental conditions is provided in SI Table VII, Square voltage pulses in a voltage ladder protocol were used to study current/voltage (I(V)) relationships. Each voltage protocol was first run three times in the presence of vehicle (extracellular solution supplemented with 0.3% DMSO), the 3rd serving as the baseline. Voltage protocols were repeated in the presence of 4 cumulatively rising concentrations of test compound, followed by application of vehicle for recovery.

Sequence of hERG (KV11.1) (Q12809 whole entry): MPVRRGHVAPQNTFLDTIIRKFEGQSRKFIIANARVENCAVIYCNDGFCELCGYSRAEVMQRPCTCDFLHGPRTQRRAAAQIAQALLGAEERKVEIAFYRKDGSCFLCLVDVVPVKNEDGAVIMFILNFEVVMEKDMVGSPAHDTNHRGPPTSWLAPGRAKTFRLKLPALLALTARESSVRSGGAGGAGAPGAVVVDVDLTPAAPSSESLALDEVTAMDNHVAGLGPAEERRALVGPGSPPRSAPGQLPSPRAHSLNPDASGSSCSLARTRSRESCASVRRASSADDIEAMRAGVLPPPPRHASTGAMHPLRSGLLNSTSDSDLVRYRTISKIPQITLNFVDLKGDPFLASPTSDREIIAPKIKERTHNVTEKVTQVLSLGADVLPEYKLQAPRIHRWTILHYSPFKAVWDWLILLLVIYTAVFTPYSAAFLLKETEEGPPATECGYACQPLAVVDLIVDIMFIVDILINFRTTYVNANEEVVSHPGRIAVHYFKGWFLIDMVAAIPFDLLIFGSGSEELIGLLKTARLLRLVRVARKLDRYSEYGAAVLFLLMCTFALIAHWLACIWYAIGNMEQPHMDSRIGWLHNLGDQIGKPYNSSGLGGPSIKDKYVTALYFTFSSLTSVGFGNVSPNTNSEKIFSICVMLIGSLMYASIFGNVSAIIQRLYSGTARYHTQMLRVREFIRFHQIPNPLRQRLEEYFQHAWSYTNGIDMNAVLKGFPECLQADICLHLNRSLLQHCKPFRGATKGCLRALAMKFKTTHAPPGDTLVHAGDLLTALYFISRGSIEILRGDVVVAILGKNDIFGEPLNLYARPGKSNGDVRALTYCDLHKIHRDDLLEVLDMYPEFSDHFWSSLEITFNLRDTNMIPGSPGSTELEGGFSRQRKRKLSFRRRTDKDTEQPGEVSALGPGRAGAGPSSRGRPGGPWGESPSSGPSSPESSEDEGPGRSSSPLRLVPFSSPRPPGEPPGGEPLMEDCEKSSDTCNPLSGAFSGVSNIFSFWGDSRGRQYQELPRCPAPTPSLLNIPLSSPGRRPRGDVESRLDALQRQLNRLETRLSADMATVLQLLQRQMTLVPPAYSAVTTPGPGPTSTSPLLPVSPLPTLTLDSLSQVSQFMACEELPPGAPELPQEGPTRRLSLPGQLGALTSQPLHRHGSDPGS

Row | Compound | hERG channel Efficacy (max reduction in Gmax) Gmin
1 | COC(=O)[C@@H](NC(=O)c1cn(CC2CCCCC2)c2ccccc12)C(C)C [MMB-CHMICA] | 0.75
2 | O=C(c1cccc2ccccc12)c1cn(CCCCCF)c2ccccc12 [AM-2201] | 0.38
3 | CCCCCn1cc(C(=O)c2ccc(C)c3ccccc23)c2ccccc21 [JWH-122] | 0.73
4 | CCCCn1nc(C(=O)NC(C(N)=O)C(C)(C)C)c2cc(Br)ccc21 (stereo not drawn) [ADB-5'Br-BUTINACA] | 0.36
5 | N#CCCCCn1nc(C(=O)NCc2ccccc2)c2ccccc21 [Benzyl-4CN-BUTINACA] | 0.00
6 | CC(C)(C)[C@H](NC(=O)c1nn(CC2CCCCC2)c2ccccc12)C(N)=O | 0.13
7 | CC(C)(C)C(NC(=O)c1cn(CC2CCCCC2)c2ccccc12)C(N)=O (stereo not drawn) [ADB-CHMICA] | 0.48
8 | CC(C)[C@H](NC(=O)c1cn(CC2CCCCC2)c2ccccc12)C(N)=O [AB-CHMICA] | 0.64
9 | CC(C)(C)[C@H](NC(=O)c1nn(Cc2ccc(F)cc2)c2ccccc12)C(N)=O [ADB-FUBINACA] | 0.25

Same assay, conditions: read-out: hERG channel Potency IC50 (Gmax reduction); APC, 22 °C, best fit

Row | Compound | IC50
10 | COC(=O)[C@@H](NC(=O)c1cn(CC2CCCCC2)c2ccccc12)C(C)C [MMB-CHMICA] | 2.6 µM
11 | O=C(c1cccc2ccccc12)c1cn(CCCCCF)c2ccccc12 [AM-2201] | 1.3 µM
12 | CCCCCn1cc(C(=O)c2ccc(C)c3ccccc23)c2ccccc21 [JWH-122] | 9.4 µM
13 | CCCCn1nc(C(=O)NC(C(N)=O)C(C)(C)C)c2cc(Br)ccc21 (stereo not drawn) [ADB-5'Br-BUTINACA] | 40.1 µM
14 | N#CCCCCn1nc(C(=O)NCc2ccccc2)c2ccccc21 [Benzyl-4CN-BUTINACA] | 17.3 µM
15 | CC(C)(C)[C@H](NC(=O)c1nn(CC2CCCCC2)c2ccccc12)C(N)=O | 11.3 µM
16 | CC(C)(C)C(NC(=O)c1cn(CC2CCCCC2)c2ccccc12)C(N)=O (stereo not drawn) [ADB-CHMICA] | 5.2 µM
17 | CC(C)[C@H](NC(=O)c1cn(CC2CCCCC2)c2ccccc12)C(N)=O [AB-CHMICA] | 8.2 µM
18 | CC(C)(C)[C@H](NC(=O)c1nn(Cc2ccc(F)cc2)c2ccccc12)C(N)=O [ADB-FUBINACA] | 13.7 µM

The molecules below were run against KV7.1/KCNE1 (Homo sapiens, UniProt P51787) (assay: Automated patch-clamp (APC, population patch), CHO cells stably expressing human KV7.1/KCNE1). Conditions: 10 µM, both channels by APC.
Type: cell-based
Experimental: Both hERG and KV7.1/KCNE1 contribute to cardiomyocyte repolarization (Fig. 1g). Inhibition of KV7.1/KCNE1 alone can be proarrhythmic. Moreover, under conditions with impaired hERG function, upregulation of KV7.1/KCNE1 has been proposed to partially compensate for the loss of hERG [38, 39]. […] To assess if SCRAs also affect KV7.1/KCNE1, we used mammalian CHO cells stably expressing human KV7.1/KCNE1. […] At 10 µM, 7 of the SCRAs caused a significant positive shift in V50 (Fig. 5e), with the largest shift induced by MDMB-[…] (ΔV50 = +10.3 ± 1.6 mV).
Automated patch-clamp recordings were performed at 22 °C.
For the KV7.1/KCNE1 voltage ladder protocol (SI Table VII) the solutions were present for 60 s before recording started. KV7.1/KCNE1 cells were kept at a holding voltage of −90 mV, with brief hyperpolarizing steps to −100 mV for 540 ms (to calculate ohmic leakage). […] The time between compound application and the first voltage protocol was 60 s. Time between sweeps was 15 s. The voltage ladder protocol was executed every 220 s.
For Gmax (rel.), N was set to –1. For ΔV50, N was set to 1.

Sequence of KV7.1/KCNE1 (P51787 whole entry): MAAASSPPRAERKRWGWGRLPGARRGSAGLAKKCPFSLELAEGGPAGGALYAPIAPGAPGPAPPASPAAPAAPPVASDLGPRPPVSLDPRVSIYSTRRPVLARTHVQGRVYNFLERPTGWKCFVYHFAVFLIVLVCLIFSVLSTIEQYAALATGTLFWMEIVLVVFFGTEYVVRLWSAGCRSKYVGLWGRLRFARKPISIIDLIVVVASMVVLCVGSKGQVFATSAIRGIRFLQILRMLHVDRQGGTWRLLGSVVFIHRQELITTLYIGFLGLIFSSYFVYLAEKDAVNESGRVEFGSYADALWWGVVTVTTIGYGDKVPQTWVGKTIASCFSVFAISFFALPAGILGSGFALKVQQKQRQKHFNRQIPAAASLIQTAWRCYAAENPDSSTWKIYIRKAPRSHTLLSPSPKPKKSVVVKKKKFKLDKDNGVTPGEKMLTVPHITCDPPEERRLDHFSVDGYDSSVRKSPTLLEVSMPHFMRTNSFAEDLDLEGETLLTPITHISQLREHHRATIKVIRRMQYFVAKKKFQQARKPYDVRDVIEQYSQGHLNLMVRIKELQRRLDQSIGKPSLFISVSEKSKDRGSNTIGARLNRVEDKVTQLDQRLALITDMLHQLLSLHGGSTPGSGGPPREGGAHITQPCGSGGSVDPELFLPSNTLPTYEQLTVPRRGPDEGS

Row | Compound | Gmax effect on hERG versus KV7.1/KCNE1 (in words)
19 | O=C(c1cccc2ccccc12)c1cn(CCCCCF)c2ccccc12 [AM-2201] | effects only on hERG

Same assay, conditions: * Greatest efficacy achieved with a concentration between 10 and 30 µM (no fit)

Row | Compound | KV7.1/KCNE1 channel Efficacy (max reduction in Gmax) Gmin, marked *
20 | O=C(c1cccc2ccccc12)c1cn(CCCCCF)c2ccccc12 [AM-2201] | 0.92
21 | CCCCCn1cc(C(=O)c2ccc(C)c3ccccc23)c2ccccc21 [JWH-122] | 0.87
22 | CCCCn1nc(C(=O)NC(C(N)=O)C(C)(C)C)c2cc(Br)ccc21 (stereo not drawn) [ADB-5'Br-BUTINACA] | 0.80
23 | N#CCCCCn1nc(C(=O)NCc2ccccc2)c2ccccc21 [Benzyl-4CN-BUTINACA] | 0.73
24 | CC(C)(C)[C@H](NC(=O)c1nn(CC2CCCCC2)c2ccccc12)C(N)=O | 0.93
25 | CC(C)(C)[C@H](NC(=O)c1nn(Cc2ccc(F)cc2)c2ccccc12)C(N)=O [ADB-FUBINACA] | 0.81

Same assay, conditions: APC, best fit; read-out: KV7.1/KCNE1 channel Potency IC50 (Gmax reduction)

Row | Compound | IC50
26 | CC(C)(C)C(NC(=O)c1cn(CC2CCCCC2)c2ccccc12)C(N)=O (stereo not drawn) [ADB-CHMICA] | 13.4 µM
27 | CC(C)[C@H](NC(=O)c1cn(CC2CCCCC2)c2ccccc12)C(N)=O [AB-CHMICA] | 16.2 µM

Same assay, conditions: best fit; 1 = no reduction of Gmax, 0 = complete reduction

Row | Compound | KV7.1/KCNE1 channel Efficacy (max reduction in Gmax) Gmin
28 | COC(=O)[C@@H](NC(=O)c1cn(CC2CCCCC2)c2ccccc12)C(C)C [MMB-CHMICA] | 0.83
29 | CC(C)(C)C(NC(=O)c1cn(CC2CCCCC2)c2ccccc12)C(N)=O (stereo not drawn) [ADB-CHMICA] | 0.4
30 | CC(C)[C@H](NC(=O)c1cn(CC2CCCCC2)c2ccccc12)C(N)=O [AB-CHMICA] | 0.46

These molecules were tested against T1, human CB1 receptor (Homo sapiens, UniProt P21554) (assay: AequoScreen intracellular calcium release assay, CHO-K1 cells stably expressing CB1). Conditions: not given.
T1 construct: host or cells: CHO-K1 stably expressing CB1, apoaequorin and Gα16
Type: cell-based

T1 sequence (P21554 whole entry): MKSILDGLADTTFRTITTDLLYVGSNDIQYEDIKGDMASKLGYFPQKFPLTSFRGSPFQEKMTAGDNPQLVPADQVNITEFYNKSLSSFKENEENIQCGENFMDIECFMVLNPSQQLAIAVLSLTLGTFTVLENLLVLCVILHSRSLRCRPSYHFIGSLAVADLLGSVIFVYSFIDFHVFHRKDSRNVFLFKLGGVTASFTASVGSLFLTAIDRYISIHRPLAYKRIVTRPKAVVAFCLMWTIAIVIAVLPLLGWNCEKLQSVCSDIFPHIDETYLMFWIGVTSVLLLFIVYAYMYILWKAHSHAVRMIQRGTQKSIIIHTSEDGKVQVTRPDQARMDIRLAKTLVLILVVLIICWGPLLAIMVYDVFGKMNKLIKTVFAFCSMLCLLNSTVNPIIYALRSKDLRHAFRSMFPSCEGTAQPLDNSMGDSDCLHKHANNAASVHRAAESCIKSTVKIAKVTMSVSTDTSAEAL

Row | Compound | CB1 receptor Efficacy Emax
31 | CC(C)(C)[C@H](NC(=O)c1nn(CC2CCCCC2)c2ccccc12)C(N)=O | 107 % JWH-018

Same assay, conditions: normalized to maximum of JWH-018; n ≥ 3 (JWH-030 n = 2)

Row | Compound | CB1 receptor Efficacy Emax
32 | COC(=O)[C@@H](NC(=O)c1cn(CC2CCCCC2)c2ccccc12)C(C)C [MMB-CHMICA] | 109 % JWH-018
33 | O=C(c1cccc2ccccc12)c1cn(CCCCCF)c2ccccc12 [AM-2201] | 99.7 % JWH-018
34 | CCCCCn1cc(C(=O)c2ccc(C)c3ccccc23)c2ccccc21 [JWH-122] | 105 % JWH-018
35 | CCCCn1nc(C(=O)NC(C(N)=O)C(C)(C)C)c2cc(Br)ccc21 (stereo not drawn) [ADB-5'Br-BUTINACA] | 110 % JWH-018
36 | N#CCCCCn1nc(C(=O)NCc2ccccc2)c2ccccc21 [Benzyl-4CN-BUTINACA] | 109 % JWH-018
37 | CC(C)(C)C(NC(=O)c1cn(CC2CCCCC2)c2ccccc12)C(N)=O (stereo not drawn) [ADB-CHMICA] | 110 % JWH-018
38 | CC(C)[C@H](NC(=O)c1cn(CC2CCCCC2)c2ccccc12)C(N)=O [AB-CHMICA] | 110 % JWH-018
39 | CC(C)(C)[C@H](NC(=O)c1nn(Cc2ccc(F)cc2)c2ccccc12)C(N)=O [ADB-FUBINACA] | 106 % JWH-018

Same assay, conditions: normalized to median EC50 of JWH-018; n ≥ 3 (JWH-030 n = 2); read-out: CB1 receptor Potency EC50

Row | Compound | EC50
40 | COC(=O)[C@@H](NC(=O)c1cn(CC2CCCCC2)c2ccccc12)C(C)C [MMB-CHMICA] | 0.00876 µM
41 | O=C(c1cccc2ccccc12)c1cn(CCCCCF)c2ccccc12 [AM-2201] | 0.0258 µM
42 | CCCCCn1cc(C(=O)c2ccc(C)c3ccccc23)c2ccccc21 [JWH-122] | 0.00829 µM
43 | CCCCn1nc(C(=O)NC(C(N)=O)C(C)(C)C)c2cc(Br)ccc21 (stereo not drawn) [ADB-5'Br-BUTINACA] | 0.018 µM
44 | N#CCCCCn1nc(C(=O)NCc2ccccc2)c2ccccc21 [Benzyl-4CN-BUTINACA] | 0.408 µM
45 | CC(C)(C)C(NC(=O)c1cn(CC2CCCCC2)c2ccccc12)C(N)=O (stereo not drawn) [ADB-CHMICA] | 0.0157 µM
46 | CC(C)[C@H](NC(=O)c1cn(CC2CCCCC2)c2ccccc12)C(N)=O [AB-CHMICA] | 0.0201 µM
47 | CC(C)(C)[C@H](NC(=O)c1nn(Cc2ccc(F)cc2)c2ccccc12)C(N)=O [ADB-FUBINACA] | 0.00497 µM

Same assay, conditions: read-out: CB1 receptor Potency EC50

Row | Compound | EC50
48 | CC(C)(C)[C@H](NC(=O)c1nn(CC2CCCCC2)c2ccccc12)C(N)=O | 0.00387 µM
